Converted amounts (≈) assume the structure as drawn.
Columns and labels:
Enterococcus faecalis [1] = assay: Minimum inhibitory concentration against vancomycin-sensitive Enterococcus faecalis in the presence of 30% bovine serum (n=3) (range = 0.125-0.5); format: functional
Enterococcus faecium [2] = assay: Minimum inhibitory concentration against vancomycin-A Enterococcus faecium in the presence of 30% bovine serum (n=1) (range = 0.125-128mg/l); format: functional
[3] = system: Staphylococcus epidermidis; assay: Minimum inhibitory concentration against methicillin-resistant Staphylococcus epidermidis in the presence of 30% bovine serum; format: functional
Staphylococcus aureus [4] = assay: Minimum inhibitory concentration against methicillin-sensitive Staphylococcus aureus
Staphylococcus aureus [5] = assay: Minimum inhibitory concentration against methicillin-resistant Staphylococcus aureus
Enterococcus faecium [6] = assay: Minimum inhibitory concentration against vancomycin-sensitive Enterococcus faecium in the presence of 30% bovine serum(n=1); format: functional
[7] = system: Staphylococcus epidermidis; assay: Minimum inhibitory concentration against methicillin-sensitive Staphylococcus epidermidis in the presence of 30% bovine serum; format: functional
Enterococcus faecalis [8] = assay: Minimum inhibitory concentration against vancomycin-A Enterococcus faecalis (n=4) (range = 2-128mg/L)
[9] = system: Staphylococcus haemolyticus; assay: Minimum inhibitory concentration against Staphylococcus haemolyticus in the presence of 30% bovine serum; format: functional
Enterococcus faecium [10] = assay: Minimum inhibitory concentration against vancomycin-A Enterococcus faecium in the presence of 30% bovine serum (n=1) (range = 0.25-32mg/l); format: functional
Enterococcus faecalis [11] = assay: Minimum inhibitory concentration against vancomycin-A Enterococcus faecalis in the presence of 30% bovine serum(n=4) (range = 0.5-8mg/L); format: functional
Enterococcus faecalis [12] = assay: Minimum inhibitory concentration against vancomycin-sensitive Enterococcus faecalis in the presence of 30% bovine serum(n=3); format: functional
Enterococcus faecalis [13] = assay: Minimum inhibitory concentration against vancomycin-sensitive Enterococcus faecalis in the presence of 30% bovine serum (n=3); format: functional
Enterococcus faecium [14] = assay: Minimum inhibitory concentration against vancomycin-A Enterococcus faecium in the presence of 30% bovine serum (n=1); format: functional
Enterococcus faecalis [15] = assay: Minimum inhibitory concentration against vancomycin-A Enterococcus faecalis in the presence of 30% bovine serum(n=4) (range = 0.5-8 mg/L); format: functional
Enterococcus faecium [16] = assay: Minimum inhibitory concentration against vancomycin-A Enterococcus faecium in the presence of 30% bovine serum (n=1) (range = 0.5>128mg/l); format: functional
Enterococcus faecalis [17] = assay: Minimum inhibitory concentration against vancomycin-A Enterococcus faecalis in the presence of 30% bovine serum (n=4) (range = 2-4 mg/L); format: functional
Enterococcus faecalis [18] = assay: Minimum inhibitory concentration against vancomycin-sensitive Enterococcus faecalis in the presence of 30% bovine serum(n=3)(range = 0.25-1mg/l); format: functional
Enterococcus faecalis [19] = assay: Minimum inhibitory concentration against vancomycin-A Enterococcus faecalis in the presence of 30% bovine serum(n=4) (range = 16>128mg/L); format: functional
Enterococcus faecium [20] = assay: Minimum inhibitory concentration against vancomycin-A Enterococcus faecium in the presence of 30% bovine serum (n=1) (range = 1>128mg/l); format: functional
Enterococcus faecium [21] = assay: Minimum inhibitory concentration against vancomycin-A Enterococcus faecium in the presence of 30% bovine serum (n=1) (range = 2>128mg/l); format: functional
Enterococcus faecalis [22] = assay: Minimum inhibitory concentration against vancomycin-sensitive Enterococcus faecalis in the presence of 30% bovine serum (n=3) (range = 0.5-1mg/l); format: functional
Enterococcus faecalis [23] = assay: Minimum inhibitory concentration against vancomycin-A Enterococcus faecalis in the presence of 30% bovine serum (n=4); format: functional
Enterococcus faecium [24] = assay: Minimum inhibitory concentration against vancomycin-A Enterococcus faecium in the presence of 30% bovine serum (n=1) (range = 64>128mg/L); format: functional
Enterococcus faecalis [25] = assay: Minimum inhibitory concentration against vancomycin-sensitive Enterococcus faecalis in the presence of 30% bovine serum(n=3)(range = 0.5-1mg/l); format: functional
Enterococcus faecalis [26] = assay: Minimum inhibitory concentration against vancomycin-sensitive Enterococcus faecalis in the presence of 30% bovine serum(n=3)(range = 0.125 - 0.16 mg/l); format: functional
Enterococcus faecalis [27] = assay: Minimum inhibitory concentration against vancomycin-A Enterococcus faecalis in the presence of 30% bovine serum (n=4) (Range = 0.125 - 16 mg/L); format: functional
Enterococcus faecalis [28] = assay: Minimum inhibitory concentration against vancomycin-sensitive Enterococcus faecalis in the presence of 30% bovine serum(n=3)(range =0.125-0.25 mg/l); format: functional
Enterococcus faecium [29] = assay: Minimum inhibitory concentration against vancomycin-A Enterococcus faecium in the presence of 30% bovine serum (n=1) (range = 2-64mg/L); format: functional

SMILES	MIC [3] [µg/mL]	MIC (Staphylococcus aureus [4]) [µg/mL]	MIC (Staphylococcus aureus [5]) [µg/mL]	MIC (Enterococcus faecium [6]) [µg/mL]	MIC [7] [µg/mL]	MIC [9] [µg/mL]	also measured
CCCCn1cc(CNC2[C@H](Oc3c4cc5cc3Oc3ccc(cc3Cl)[C@@H](O)C3NC(=O)[C@H](NC(=O)[C@@H]5NC(=O)[C@H]5NC(=O)[C@@H](Cc6ccc(cc6)O4)NC(=O)[C@H](N(C)Cc4cn(CCCC)c6ccccc46)c4ccc(O)c(c4)Oc4cc(O)c(Cl)c5c4)c4ccc(O)c(c4)-c4c(O[C@H]5O[C@H](CO)[C@@H](O)[C@H](O)[C@@H]5O)cc(O)cc4[C@@H](C(=O)NCCCN(C)C)NC3=O)OC(C(=O)NCCCN(C)C)C(O)[C@@H]2O)c2ccccc21 (stereo not given in full)	2	0.5 (≈ 0.239 µM)	2 (≈ 0.957 µM)	0.125	0.25	0.25	MIC (Enterococcus faecalis [1]): < 0.5 µg/mL; MIC (Enterococcus faecium [2]): 128 µg/mL; MIC (Enterococcus faecalis [8]): 128 µg/mL (≈ 61.3 µM)
CN(C)CCCNC(=O)C1O[C@@H](Oc2c3cc4cc2Oc2ccc(cc2Cl)[C@@H](O)C2NC(=O)[C@H](NC(=O)[C@@H]4NC(=O)[C@H]4NC(=O)[C@@H](Cc5ccc(cc5)O3)NC(=O)[C@H](N(C)Cc3c[nH]c5ccccc35)c3ccc(O)c(c3)Oc3cc(O)c(Cl)c4c3)c3ccc(O)c(c3)-c3c(O[C@H]4O[C@H](CO)[C@@H](O)[C@H](O)[C@@H]4O)cc(O)cc3[C@@H](C(=O)NCCCN(C)C)NC2=O)C(NCc2c[nH]c3ccccc23)[C@@H](O)C1O (stereo not given in full)	2	2 (≈ 1.01 µM)	1 (≈ 0.506 µM)	0.25	1	2	MIC (Enterococcus faecium [10]): 32 µg/mL; MIC (Enterococcus faecalis [11]): 8 µg/mL; MIC (Enterococcus faecalis [12]): < 0.125 µg/mL
CCCCCCCCOc1ccc(CNC2[C@H](Oc3c4cc5cc3Oc3ccc(cc3Cl)[C@@H](O)C3NC(=O)[C@H](NC(=O)[C@@H]5NC(=O)[C@H]5NC(=O)[C@@H](Cc6ccc(cc6)O4)NC(=O)[C@H](NC)c4ccc(O)c(c4)Oc4cc(O)c(Cl)c5c4)c4ccc(O)c(c4)-c4c(O[C@H]5O[C@H](CO)[C@@H](O)[C@H](O)[C@@H]5O)cc(O)cc4[C@@H](C(=O)NCCCN(C)C)NC3=O)OC(C(=O)NCCCN(C)C)C(O)[C@@H]2O)cc1 (stereo not given in full)		0.5 (≈ 0.258 µM)	0.25 (≈ 0.129 µM)	0.13	0.125	4	MIC (Enterococcus faecalis [13]): 0.25 µg/mL; MIC (Enterococcus faecium [14]): 0.8 µg/mL; MIC (Enterococcus faecalis [15]): 8 µg/mL
CCCCc1ccc(CNC2[C@H](Oc3c4cc5cc3Oc3ccc(cc3Cl)[C@@H](O)C3NC(=O)[C@H](NC(=O)[C@@H]5NC(=O)[C@H]5NC(=O)[C@@H](Cc6ccc(cc6)O4)NC(=O)[C@H](N(C)Cc4ccc(CCCC)cc4)c4ccc(O)c(c4)Oc4cc(O)c(Cl)c5c4)c4ccc(O)c(c4)-c4c(O[C@H]5O[C@H](CO)[C@@H](O)[C@H](O)[C@@H]5O)cc(O)cc4[C@@H](C(=O)O)NC3=O)OC(C(=O)O)C(O)[C@@H]2O)cc1 (stereo not given in full)	8		2 (≈ 1.09 µM)	1	4	8	MIC (Enterococcus faecium [16]): > 128 µg/mL; MIC (Enterococcus faecalis [17]): 4 µg/mL; MIC (Enterococcus faecalis [18]): 1 µg/mL
CCCCn1cc(CNC2[C@H](Oc3c4cc5cc3Oc3ccc(cc3Cl)[C@@H](O)C3NC(=O)[C@H](NC(=O)[C@@H]5NC(=O)[C@H]5NC(=O)[C@@H](Cc6ccc(cc6)O4)NC(=O)[C@H](N(C)Cc4cn(CCCC)c6ccccc46)c4ccc(O)c(c4)Oc4cc(O)c(Cl)c5c4)c4ccc(O)c(c4)-c4c(O[C@H]5O[C@H](CO)[C@@H](O)[C@H](O)[C@@H]5O)cc(O)cc4[C@@H](C(=O)O)NC3=O)OC(C(=O)O)C(O)[C@@H]2O)c2ccccc21 (stereo not given in full)	32	4 (≈ 2.08 µM)	2 (≈ 1.04 µM)	< 0.125	4	64	MIC (Enterococcus faecalis [13]): 0.25 µg/mL; MIC (Enterococcus faecalis [19]): > 128 µg/mL; MIC (Enterococcus faecium [20]): > 128 µg/mL
CN(Cc1c[nH]c2ccccc12)[C@H]1C(=O)N[C@@H]2Cc3ccc(cc3)Oc3cc4cc(c3O[C@@H]3OC(C(=O)O)C(O)[C@H](O)C3NCc3c[nH]c5ccccc35)Oc3ccc(cc3Cl)[C@@H](O)C3NC(=O)[C@H](NC(=O)[C@@H]4NC(=O)[C@@H](NC2=O)c2cc(cc(O)c2Cl)Oc2cc1ccc2O)c1ccc(O)c(c1)-c1c(O[C@H]2O[C@H](CO)[C@@H](O)[C@H](O)[C@@H]2O)cc(O)cc1[C@@H](C(=O)O)NC3=O (stereo not given in full)	128	4 (≈ 2.21 µM)	2 (≈ 1.11 µM)	2	64	> 128	MIC (Enterococcus faecium [21]): > 128 µg/mL; MIC (Enterococcus faecalis [22]): 1 µg/mL; MIC (Enterococcus faecalis [23]): 32 µg/mL
CN(Cc1ccc2ccccc2c1)[C@H]1C(=O)N[C@@H]2Cc3ccc(cc3)Oc3cc4cc(c3O[C@@H]3OC(C(=O)O)C(O)[C@H](O)C3N)Oc3ccc(cc3Cl)[C@@H](O)C3NC(=O)[C@H](NC(=O)[C@@H]4NC(=O)[C@@H](NC2=O)c2cc(cc(O)c2Cl)Oc2cc1ccc2O)c1ccc(O)c(c1)-c1c(O[C@H]2O[C@H](CO)[C@@H](O)[C@H](O)[C@@H]2O)cc(O)cc1[C@@H](C(=O)O)NC3=O (stereo not given in full)	32	2 (≈ 1.18 µM)	2 (≈ 1.18 µM)	1	16	128	MIC (Enterococcus faecium [24]): > 128 µg/mL; MIC (Enterococcus faecalis [25]): 1 µg/mL; MIC (Enterococcus faecalis [23]): 128 µg/mL
CCCCCCOc1ccc(CNC2[C@H](Oc3c4cc5cc3Oc3ccc(cc3Cl)[C@@H](O)C3NC(=O)[C@H](NC(=O)[C@@H]5NC(=O)[C@H]5NC(=O)[C@@H](Cc6ccc(cc6)O4)NC(=O)[C@H](NC)c4ccc(O)c(c4)Oc4cc(O)c(Cl)c5c4)c4ccc(O)c(c4)-c4c(O[C@H]5O[C@H](CO)[C@@H](O)[C@H](O)[C@@H]5O)cc(O)cc4[C@@H](C(=O)NCCCN(C)C)NC3=O)OC(C(=O)NCCCN(C)C)C(O)[C@@H]2O)cc1OCC (stereo not given in full)		< 0.125		< 0.125	< 0.125	2	MIC (Enterococcus faecalis [26]): < 0.125 µg/mL; MIC (Enterococcus faecalis [27]): < 16 µg/mL; MIC (Enterococcus faecium [14]): > 16 µg/mL
CCCCCCCCCCc1ccc(CNC2[C@H](Oc3c4cc5cc3Oc3ccc(cc3Cl)[C@@H](O)C3NC(=O)[C@H](NC(=O)[C@@H]5NC(=O)[C@H]5NC(=O)[C@@H](Cc6ccc(cc6)O4)NC(=O)[C@H](NC)c4ccc(O)c(c4)Oc4cc(O)c(Cl)c5c4)c4ccc(O)c(c4)-c4c(O[C@H]5O[C@H](CO)[C@@H](O)[C@H](O)[C@@H]5O)cc(O)cc4[C@@H](C(=O)O)NC3=O)OC(C(=O)O)C(O)[C@@H]2O)cc1 (stereo not given in full)		4 (≈ 2.25 µM)	2 (≈ 1.12 µM)	0.5	32	32	MIC (Enterococcus faecalis [28]): 0.125 µg/mL; MIC (Enterococcus faecium [29]): > 64 µg/mL
